Experimental data published in publication PMC9198545, “Pharmacokinetics and Pharmacodynamics of Fungal Defensin NZX Against Staphylococcus aureus-Induced Mouse Peritonitis Model” (Frontiers in Microbiology, 2022).
Converted amounts (≈) assume the structure as drawn. Where two headings read alike, the source gives them in different places.

Columns and labels:
S. aureus E48 [1] = experiment: MIC after cathepsin B treatment or in MHB at pH 5.0; format: cell-based, Staphylococcus aureus; conditions: for MIC at pH 5.0 compared to pH 7.4 (increase): MHB adjusted to pH 5.0, lysosomal acid environment; for change of MIC in phagolysosomal proteinase environment: cathepsin B 16 μg/ml, pH 5.0 buffer, 37°C, 1 h
Procedure: To test the effect of phagolysosomal enzyme-cathepsin B (from bovine spleen, Sigma C7800) on the antibacterial activities of peptides, NZX was diluted to 640 μg/ml in a cathepsin buffer (5-mM L-cysteine, 20-mM sodium acetate, 1-mM EDTA, pH of 5.0) and incubated with 16 μg/ml enzyme solution at 37°C for 1 h. The MIC value of NZX against S. aureus E48 was examined. NZX without enzyme solution was set as the negative control. Additionally, to mimic the intracellular condition, the MHB medium was adjusted to a specific pH value of 5.0 to determine the MIC value of NZX against S. aureus E48 in the acidic environment (Wang et al., [2019]). In all experiments, clindamycin, linezolid, daptomycin, and ampicillin acted as antibiotic control.

S. aureus E48 [2] = experiment: Survival rate and time-killing kinetic curves; format: cell-based, Staphylococcus aureus; conditions: for time to complete killing of S. aureus E48: 2 × MIC; for Survival rate of S. aureus E48: 1/2 × to 2 × MIC for 2 h, 1 × 10^5 CFU/ml, mean n = 3
Procedure: Survival rate and time-killing kinetic curves experiments were conducted as described previously (Li et al., [2020b]). […] After incubation at various times (0, 15, 30, 60, 90, and 120 min), a volume of 100 μl of bacterial suspension was taken out from a flask and diluted to count. All assays were conducted independently in triplicate.

S. aureus E48 [3] = experiment: microbe, parasite or virus in culture; conditions: for MIC: Staphylococcus aureus, E48, read-out: MIC after 30-day serial passage
Procedure: The development of drug resistance of S. aureus E48 induced by NZX and antibiotics was conducted as described previously (Li et al., [2017]). The MICs of antibacterial agents were measured according to the MICs testing method as described above. […] Then, the MIC values of the next passage were conducted again, and the experimental procedures were repeated for 30 days. The development of drug resistance was determined by the fold changes in MICs.

S. aureus E48 [4] = format: in vivo, mouse; conditions: for extension of survival time: 20 mg/kg intravenous single injection; for survival rate of the mice: 7 days, n = 6
Procedure: Each mouse was received a peritonitis by intraperitoneal injection of S. aureus E48 suspended in a PBS buffer (2 × 10^8 CFU/ml, 0.5 ml). […] After therapy, the survival conditions of the mice were recorded within 7 days.

[5] = test system: S. aureus MRSA ATCC 43300; experiment: microbe, parasite or virus in culture
Procedure: (§1) The MICs of NZX and other antibacterial agents against S. aureus strains were conducted according to the Clinical Laboratory Standards Institute (Watts et al., [2013]). […] The wells containing antibiotics were set as positive controls. Negative control wells contained a PBS buffer and bacterial suspension without antibacterial agents. The MIC value was defined as the lowest concentration of antibacterial agents at which no visible bacteria were observed. All MIC assays were performed independently in triplicate.

S. aureus E48 [6] = experiment: microbe, parasite or virus in culture
Procedure: as §1

[7] = test system: S. aureus MSSA ATCC 25923; experiment: microbe, parasite or virus in culture; conditions: Staphylococcus aureus, ATCC25923|MSSA
Procedure: as §1

S. aureus E48 [8] = conditions: ref Yang et al., 2019, cited from earlier work
Source text: NZX, a variant of plectasin, has garnered interest as an ideal therapeutic drug against S. aureus because of its ability to kill intracellular bacteria and good biocompatibility (Tenland et al., [2018]; Liu et al., [2020]). […] T ...

[9] = ref Liu et al., 2020; cited from earlier work
Source text: However, plectasin had some limitations before clinical application, such as cytotoxicity and trypsin instability (Yang et al., [2019]). NZX (MW 4383.89 Da), a variant of plectasin with three mutation sites (D9S, M13I, and K32R), had the increased net charge (from +1 to +2) and hydrophobicity (from −0.695 to ...

[10] = design: method as in Andes et al., 2009; Brinch et al., 2009; conditions: in human and mice serum, ref Andes et al., 2009, Brinch et al.; cited from earlier work
S. aureus E48 [11] = experiment: Bacterial burden in organs and peritoneal fluid, mouse peritonitis model; format: in vivo; conditions: 20 mg/kg, 24 h
Procedure: In this study, untreated mice that received a lethal dose of S. aureus (2 × 10^8 CFU/ml, 0.5 ml) began to die at 6 to 8 h, and all died before 24 h, which made it difficult for us to obtain the samples when the therapy effects after 24 h administration were analyzed. Therefore, the mice that received half lethal doses of S. aureus E48 (1 × 10^8 CFU/ml, 0.5 ml) were conducted in the following pharmacodynamics analysis. After 24 h therapy with NZX (5, 10, and 20 mg/kg) or daptomycin (20 mg/kg), organ tissues, including livers, lungs, spleens, hearts, and kidneys, were collected, homogenated, and plated to count bacterial burden. In addition, the total number of bacteria and intracellular bacteria counts in peritoneal fluids were determined as described by Wang et al. ([2018]). Briefly, the total bacterial CFU in the peritoneal fluid were quantified before any further procedures. In addition, the collected peritoneal fluid was centrifuged and washed to obtain peritoneal macrophage, and then extracellular bacteria were killed after treatment with 50 μg/ml lysostaphin at 37°C for 30 min. The cells were washed two times by PBS and suspended with 1 ml of cold sterile water for lysis, and the lysate was used to determine the intracellular bacterial burden.

[12] = test system: intracellular S. aureus E48 in RAW 264.7; experiment: Intracellular antibacterial activity in RAW 264.7 cells; format: cell-based, Staphylococcus aureus; conditions: 1, 4, 16, 64 and 128 μg/ml, 24 h
Procedure: The antibacterial effects of NZX against intracellular S. aureus E48 in RAW 264.7 were determined according to a previous study (Wang et al., [2018]). The antibacterial concentrations of NZX against S. aureus E48 were set as 1, 4, 16, 64, and 128 μg/ml. Daptomycin was selected as a control because it is a polypeptide drug similar to NZX. In addition, the internalization and distribution assays of NZX in RAW 264.7 were conducted according to Wang et al. ([2019]). Briefly, RAW 264.7 cells were grown on culture dishes at 37°C for 24 h. FITC or FITC-NZX (1, 16, and 64 μg/ml) was added and incubated in the culture dishes for 24 h. The cells were washed two times with PBS and quenched by 0.04% trypan blue. Samples were analyzed by flow cytometry to determine the uptake of NZX. In distribution analysis, FITC or FITC-NZX at 64 μg/ml was added and incubated in the culture dishes for 24 h. The cells were washed two times with PBS, stained with 5 μg/ml wheat germ agglutinin (WGA)-conjugated Alexa Fluor 555 (ThermoFisher Scientific, USA) and Hoechst 33342 (ThermoFisher Scientific, USA) for 10 min, and observed by confocal microscopy (Leica TCS SP 5, Germany).

S. aureus E48 [13] = experiment: MIC in physiological salt and serum media; format: cell-based, Staphylococcus aureus; conditions: MHB adjusted to 1.25 mM CaCl2
Procedure: The physiological salt and serum stability of NZX were performed according to the previous report (Hirsch et al., [2019]).

[14] = 20 mg/kg intravenous single injection 2 h post-infection, 2 × 10^8 CFU/ml, 0.5 ml i.p.
[15] = 20 mg/kg intravenous two times (2 h and 8 h after infection)
[16] = 1 × 10^5 CFU/ml, 16–18 h at 37°C, 96-well microplate, daptomycin with 1.25 mM calcium chloride, triplicate
[17] = text summary over two strains: S. aureus MSSA ATCC 25923 and S. aureus E48
[18] = repeated exposure at sub-MIC for 30 days

| Molecule | MIC at pH 5.0 compared to pH 7.4 (increase) (S. aureus E48 [1]) | change of MIC in phagolysosomal proteinase environment (S. aureus E48 [1]) | time to complete killing of S. aureus E48 (S. aureus E48 [2]) [h] | MIC (S. aureus E48 [3]) [µg/mL] | extension of survival time (S. aureus E48 [4]) [days] | survival rate of the mice (S. aureus E48 [4]; [14]) | survival rate of the mice (S. aureus E48 [4]; [15]) | Survival rate of S. aureus E48 (S. aureus E48 [2]) | MIC ([5]; Staphylococcus aureus) [µg/mL] | MIC (S. aureus E48 [6]; Staphylococcus aureus) [µg/mL] | MIC [7, 16] [µg/mL] | MIC [7, 17] [µg/mL] | other results |
| --- | --- | --- | --- | --- | --- | --- | --- | --- | --- | --- | --- | --- | --- |
| CCC[C@@H]1C[C@@H](C(=O)N[C@@H]([C@H]2O[C@H](SC)[C@H](O)[C@@H](O)[C@H]2O)[C@H](C)Cl)N(C)C1 [Clindamycin] | ≤ 8 fold | at least 4 fold | ≤ 2 | – | – | – | – | – | – | – | – | – | – |
| CC1(C)S[C@@H]2[C@H](NC(=O)[C@H](N)c3ccccc3)C(=O)N2[C@H]1C(=O)O [Ampicillin] | did not influence | at least 4 fold | – | 16 (≈ 45.8 µM) | 2 to 4 | all the mice were dead | 50% | 83.21–100.31% | 8 (≈ 22.9 µM) | 0.25 (≈ 0.715 µM) | 0.25 (≈ 0.715 µM) | 0.25 (≈ 0.715 µM) | – |
| plectasin | – | – | – | – | – | – | – | – | – | – | – | – | S. aureus E48 killed (S. aureus E48 [8]; 2 × MIC, within 1 h): approximately 85.85%; time to eliminate bacteria (S. aureus E48 [8]; 2 × MIC): ≤ 2 h; MIC (S. aureus E48 [8]; strain not given, compared with Table 2): 4 µg/mL; hydrophobicity [9]: −0.695; net charge [9]: +1; protein-binding degree [10]: 90% |
| CCCCCCCCCC(=O)N[C@@H](Cc1c[nH]c2ccccc12)C(=O)N[C@H](CC(N)=O)C(=O)N[C@@H](CC(=O)O)C(=O)N[C@@H]1C(=O)NCC(=O)N[C@@H](CCCN)C(=O)N[C@@H](CC(=O)O)C(=O)N[C@H](C)C(=O)N[C@@H](CC(=O)O)C(=O)NCC(=O)N[C@H](CO)C(=O)N[C@@H]([C@H](C)CC(=O)O)C(=O)N[C@@H](CC(=O)c2ccccc2N)C(=O)O[C@@H]1C [Daptomycin] | – | did not change | ≤ 2 | – | – | 16.7% | 100% | 0–83.03% | – | – | – | – | bacteria burdens of liver, lung and spleen compared with the untreated group (S. aureus E48 [11]): no obvious difference; reduction of intracellular bacteria burden in the peritoneal fluid (S. aureus E48 [11]; mean ± SD, n = 6): 0.66 ± 0.83 Log10 CFU/ml; reduction of total bacterial burden in the peritoneal fluid (S. aureus E48 [11]; mean ± SD, n = 6): 1.79 ± 1.05 Log10 CFU/ml; reduction of intracellular S. aureus [12]: 89.74~98.53%; MIC after 30-day serial passage (S. aureus E48 [3]; [18]): 8 µg/mL (≈ 4.94 µM); decrease of MIC under the addition of 1.25-mM CaCl2 (S. aureus E48 [13]): 8–16 fold; MIC ([5]; ATCC 43300): 0.5 µg/mL (≈ 0.309 µM); MIC (S. aureus E48 [6]): 1 µg/mL (≈ 0.617 µM) |
| CC(=O)NC[C@H]1CN(c2ccc(N3CCOCC3)c(F)c2)C(=O)O1 [Linezolid] | did not influence | did not change | – | 2 (≈ 5.93 µM) | 2 to 4 | all the mice were dead | did not improve the survival rate | 94.08–99.89% | 2 (≈ 5.93 µM) | 1 (≈ 2.96 µM) | 2 (≈ 5.93 µM) | 1 to 2 (≈ 2.96 to 5.93 µM) | increase in the MIC value after 30-day serial passage (S. aureus E48 [3]; [18]): 2 fold; lives extended (S. aureus E48 [4]; 20 mg/kg intravenous two times): 2 to 6 days |
